For test [1], the system named is Orf2. The test is described as follows: Promiscuous activity of ORF2 with flavonoids and other compounds, [14C]GPP TLC. It is filed as biochemical, Streptomyces sp. strain CL190. The settings on record: for function as substrates for Orf2 (converted into prenylated derivatives): purified recombinant Orf2 incubated with prenyl donor and prenyl acceptor, FIGS. 2A and 2B; for Orf2 prenyltransferase activity in the presence of flavonoids, isoflavonoids and related compounds: GPP as prenyl donor, FIG. 2B. As for the experimental part:
FIG. 2B illustrates the promiscuous activity of Orf2. Several assays were conducted, employing a variety of potential substrates, i.e., 1,3-DHN (1), 1,6-DHN (2), 2,7-DHN (3), 4-HPP (4) and several isoflavonoids and polyketide derivatives, including daidzein (7,4′-dihydroxyisoflavonone, 5), formononetin (7-hydroxy, 4′-methoxyisoflavonone, 6), fisetin (3,3′,4′,7-tetrahydroxyflavone, 7), genistein (5,7,4′-trihydroxyisoflavone, 8), naringenin (5,7,4′-trihydroxyflavonone, 9), flaviolin (10), olivetol (11), olivetolic acid (12), and resveratrol (3,4′,5-trihydroxystilbene, 13). The chemical structures of four reaction products (i.e., 1,6-dihydroxy 2-geranyl naphthalene (14), 1,6-dihydroxy 5-geranyl naphthalene (15), 6-geranyl naringenin (16) and 7-O-geranyl naringenin (17)) were determined by both MS and ^1H NMR analyses. The reaction buffer consisted of 50 mM HEPES (pH 7.5), 5 mM MgCl2, and 0.1 mM GPP, 0.009 mM [^14C]GPP, and 0.1 mM of each substrate, in a final volume of 20 μl. The reaction was initiated by adding 30 μg of Orf2 to the assay mixture. After incubation at 25° C. for 6 hours, the mixture was dried, and spotted on a silica gel TLC plate. The TLC plate was developed with a chloroform/methanol (15:1) solvent mixture. Reaction products were detected with a [^14C] imaging plate (Fuji Photo Film).
The reaction buffer employed contained 50 mM HEPES (pH 7.5), 5 mM DTT (as needed), 5 mM MgCl2, 0.1 mM of each prenyl acceptor, 0.1 mM GPP, and 0.01 mM [^14C]GPP in a final volume of 20 μl. The reaction was initiated by adding 20 μg of ORF2 protein to the assay mixture. After incubation at room temperature for 4 hrs., the reaction mixture was dried using SpeedVac and the dried residue was spotted on a silica gel TLC plate. The plate was developed with chloroform:methanol (15-30:1). Reaction products were detected with a phosphoimager. The compounds tested were daidzein, fisetin, formononetin, genistein, naringenin, 4-HPP and DHN2.

The test system of a further test is HypSc. The test is described as follows: Detection of prenyltransferase activity of HypSc (TLC). In kind it is biochemical, Streptomyces coelicolor A3(2). The conditions noted are these: for reaction products of prenyl acceptor with hypSc: assay of Example 5 repeated with hypSc. As for the experimental part:
FIG. 7 relates to the functional evaluation of HypSc. Thus, HypSc prenyltransferase activity was assayed as described above with respect to FIG. 2A, using 1,6-DHN as a prenyl acceptor (in each of lanes 1-4), with no prenyl acceptor in lane 1, DMAPP in lanes 2 and 3, and GPP in lane 4. No Mg^2+ was used in lane 2. The samples were incubated overnight at room temperature.
In order to validate this model, HypSc was subcloned from genomic DNA, and over-expressed in E. coli as an octa-histidine tagged protein and purified for Ni^2+-chelation chromatography. The purified enzyme was then assayed for prenyltransferase activity using DMAPP and GPP as prenyl donors.
The assay described in Example 5 was repeated with hypSc and (a) 1,6-DHN (2), (b) 2,7-DHN (3), (c) daidzein ([…], 5), (d) genistein (5,7,4′-trihydroxyisoflavone, 8), (e) naringenin (5,7,4′-trihydroxyflavonone, 9), (f) olivetol (12), and (g) resveratrol (3,4′,5-trihydroxystilbene, 13).

Test [2] concerns Orf2. Nature of the test: Detection of prenyltransferase activity of ORF2, TLC with UV 254 nm, incl. Mg2+ dependence. It is filed as biochemical, Streptomyces sp. strain CL190. The conditions noted are these: for prenylated products with ORF2: 5 mM DHN2, 5 mM GPP; for prenyltransferase activity of ORF2: 5 mM prenyl acceptor, 5 mM MgCl2, 4 hrs room temperature; for reaction products of prenyl acceptor with ORF2: additional studies of Example 5.

The subject of another test is antibacterial. The settings on record: Schutz, Phytochemistry 40:1273-1277 (1995); cited from earlier work.

The values below come from patent US8124390B2, “Aromatic prenyltransferases, nucleic acids encoding same and uses therefor” (The Salk Institute for Biological Studies, priority 2005, dated 2012).

As for `O=C1C(O)=CC(=O)c2c(O)cc(O)cc21` [flaviolin, 2,5,7-trihydroxy-1,4-naphthoquinone], the “function as substrates for Orf2 (converted into prenylated derivatives)” value (from here on “function as substrates for Orf2”) in the test on Orf2 [1] is reported as “function as substrates”.
For the compound `Oc1ccc2c(O)cccc2c1` [1,6-DHN, 1,6-dihydroxynaphthalene], the “prenyltransferase activity of HypSc” value with HypSc (DMAPP as prenyl donor, absence of Mg2+) was “Notable prenyltransferase activity was detected”. Also, in the test on HypSc, the “reaction products of prenyl acceptor with hypSc” value (“reaction products … with hypSc” for short) was 5-dimethylallyl-1,6-DHN. Also, the “function as substrates for Orf2” value with Orf2 [1] is “function as substrates”. Besides, the “prenylated products with ORF2” value with Orf2 [2] (absence of magnesium) is listed as “no prenylated products were observed”; with Orf2 [2] (presence of magnesium (5 mM MgCl2)) it was “prenylated products were readily observed”. In addition, the “prenyltransferase activity of ORF2” value with Orf2 [2] (either prenyl donor FPP or GPP) is “prenyltransferase activity was observed”. In the test with Orf2 [2] (Orf2 incubated with 1,6-DHN and GPP), the “prenylated products detected by thin layer chromatography” value is listed as “readily detected”. Also, the “reaction products of prenyl acceptor with ORF2” value (“reaction products … with ORF2” for short) in the test with Orf2 [2] was 5-geranyl-1,6-DHN and 2-geranyl-1,6-DHN.
Consider `CCCCCc1cc(O)cc(O)c1` [olivetol], for which, in the test on HypSc, the “reaction products … with hypSc” value is 2-dimethylallyl-olivetol and 4-dimethylallyl-olivetol. Besides, in the test with Orf2 [1], the “Orf2 prenyltransferase activity in the presence of flavonoids, isoflavonoids and related compounds” value (“Orf2 prenyltransferase activity” below) was “active”. The “reaction products … with ORF2” value in the test with Orf2 [2] is 2-geranyl-olivetol and 4-geranyl-olivetol.
Consider `Oc1ccc2ccc(O)cc2c1` [2,7-DHN], for which the “reaction products … with hypSc” value in the test with HypSc was 1-dimethylallyl-2,7-DHN. Besides, in the test with Orf2 [1], the “function as substrates for Orf2” value was “function as substrates”. Also, in the test on Orf2 [2] (prenyl donor GPP), the “prenyltransferase activity of ORF2” value is “prenyltransferase activity was observed”. Further, the “reaction products … with ORF2” value in the test with Orf2 [2] was 1-geranyl-2,7-DHN and 1,6-digeranyl-2,7-DHN.
Regarding `CC(C)=CCC/C(C)=C/Cc1c(O)cc2c(c1O)C(=O)C[C@@H](c1ccc(O)cc1)O2` [6-geranyl naringenin], the antibacterial activity result with antibacterial is “significant antibacterial activity”.
On to `O=c1c(-c2ccc(O)cc2)coc2cc(O)cc(O)c12` [genistein, 5,7,4′-trihydroxyisoflavone], for which the “reaction products … with hypSc” value in the test on HypSc is given as “no reaction products detected”. In addition, in the test on Orf2 [1], the “Orf2 prenyltransferase activity” value is reported as “showed prenyltransferase activity”. Besides, in the test with Orf2 [2], the “reaction products … with ORF2” value is on record as 7-O-geranyl-genistein.
Consider `Oc1ccc(C=Cc2cc(O)cc(O)c2)cc1` [resveratrol, 3,4′,5-trihydroxystilbene], for which, in the test with HypSc, the “reaction products … with hypSc” value is 4-dimethylallyl-resveratrol. Also, the “Orf2 prenyltransferase activity” value in the test on Orf2 [1] is on record as “showed prenyltransferase activity”. The “reaction products … with ORF2” value in the test on Orf2 [2] is 4-geranyl-resveratrol.
In the case of `CCCCCc1cc(O)cc(O)c1C(=O)O` [olivetolic acid], the “Orf2 prenyltransferase activity” value with Orf2 [1] is reported as “active”.
Regarding `CC(C)=CCC/C(C)=C/COP(=O)(O)OP(=O)(O)O` [GPP, geranyl diphosphate], the “relative activity of Orf2 with prenyl donor” value with Orf2 [2] (purified recombinant Orf2, prenyl donor DMAPP (C5), GPP (C10) or FPP (C15) with aromatic acceptors) was “highest relative activity”.
As for `O=c1c(O)c(-c2ccc(O)c(O)c2)oc2cc(O)ccc12` [fisetin, 3,3′,4′,7-tetrahydroxyflavone], the “Orf2 prenyltransferase activity” value in the test with Orf2 [1] is listed as “little or no activity”.
On to `O=C(O)C(=O)Cc1ccc(O)cc1` [4-HPP, 4-hydroxyphenylpyruvate], for which the “function as substrates for Orf2” value with Orf2 [1] was “converted by Orf2 into a prenylated derivative”.
The same measure, in the same setting: the result for `N[C@@H](Cc1ccccc1)C(=O)O` [phenylalanine] reads “did not serve as substrates”.
Turning to `Oc1cc(O)c2ccccc2c1` [1,3-DHN, 1,3-dihydroxynaphthalene], in the test with Orf2 [1], the “function as substrates for Orf2” value was “function as substrates”. The “prenyltransferase activity of ORF2” value in the test with Orf2 [2] (either prenyl donor FPP or GPP) is listed as “prenyltransferase activity was observed”.
On to `N[C@@H](Cc1ccc(O)cc1)C(=O)O` [tyrosine], for which, in the test with Orf2 [1], the “function as substrates for Orf2” value was “did not serve as substrates”.
